Results published in patent US11806393B2, “Flavivirus peptide sequences, epitopes, and methods and uses thereof” (priority 2017, dated 2023).

Legend:
Type in all cases: cell-based, mouse
CD44+ CD4+ T cells [1] = assay: ICS, ZIKV SD001-infected Ifnar1-/- HLA-DRB1*0101 mice; details: for cytokines produced by ZIKV-primed CD4+ T cells on peptide stimulation: ZIKV SD001, day 7
Method: Ifnar1^−/− HLA-DRB1*0101 mice were infected retro-orbitally with 1×10^2 FFU of ZIKV strain SD001 for 7 days. Splenocytes were stimulated in vitro with the indicated ZIKV-derived HLA-DRB1*0101-binding peptides for 6 h, and the frequency of CD44^+ CD4^+ T cells producing IFNγ, TNF, or IFNγ plus TNF (A), IL-2 (B), and IL-17 (C) were detected using the ICS assay. Data represent the mean±s.e.m. of four independent experiments (n=3-5 mice/experiment; total 16 mice). *P<0.05, **P<0.01, ***P<0.001, ****P<0.0001 by two-tailed Mann-Whitney test. Negative and positive refer to cells incubated alone or with PMA/ionomycin, respectively. […]
(§1) For the 30-peptide epitope screen, 5-week-old female or male mice were infected retro-orbitally (r.o.) with either 1×10^2 focus-forming units (FFU) of ZIKV SD001 or 2×10^3 FFU of DENV2 S221 in 200 μl of 10% fetal bovine serum in phosphate-buffered saline (FBS/PBS). Seven days after infection, spleens were removed and single-cell splenocyte suspensions were prepared. A total of 1×10^6 splenocytes was plated in each well of a 96-well U-bottom plate and stimulated with individual peptides (20 μg crude peptide per well) for 6 h. One hour into the incubation, brefeldin A (GolgiPlug, BD Biosciences) was added to the cells. Positive and negative controls were splenocytes stimulated with phorbol-12-myristate-13-acetate (PMA, 0.1 μg/ml) and ionomycin (1 μg/ml) or incubated alone, respectively.
(§2) After incubation of splenocytes with peptides or PMA/ionomycin, cells were harvested, washed, and incubated with Fc Block (CD16/CD32 mAb 2.4G2, BD Biosciences), followed by staining with fixable Live/Dead blue viability stain (Life technologies) and the following antibodies: PerCP-Cy5.5-conjugated anti-CD3 mAb (clone 145-2C11, Tonbo), APC-eFluor780-conjugated anti-CD4 mAb (clone GK1.5, Invitrogen), Brilliant Violet (BV) 785-conjugated anti-CD44 mAb (clone IMT, Biolegend), PE-conjugated anti-CD11a (clone M17/4, Biolegend), BV605-conjugated anti-CD49d (clone 9C10(MFR4.B, Biolegend), PE-conjugated anti-CD25 mAb (clone PC61, Biolegend), PE-conjugated or biotin-conjugated anti-CD185 mAb (CXCR5, clone SPRC15; Invitrogen), BV 605-conjugated anti-[…] mAb (PD1, clone 29F.1A12; Biolegend), and/or BV 421-conjugated streptavidin (#405225, Biolegend). Cells were then fixed and permeabilized using Cytofix/Cytoperm solution (BD Biosciences), followed by staining with FITC-conjugated anti-IFNγ mAb (clone XMG1.2, Tonbo), Alexa Fluor 700- or APC-conjugated anti-TNF mAb (clone MP6-XT22, eBioscience), PE-, BV 421-, or BV 711-conjugated anti-IL-2 mAb (clone JES6-5H4, Biolegend), APC-conjugated anti-IL-4 mAb (clone 11B11, Biolegend), PE-conjugated anti-IL-5 mAb (clone TRFK5, eBioscience), BV510-conjugated anti-IL-17A mAb (clone 17B7, eBioscience), and/or Alexa Fluor 700-conjugated anti-FoxP3 mAb (clone FJK-16S, eBioscience). Data were collected using an LSR Fortessa flow cytometer (BD Biosciences) and analyzed using FlowJo software X 10.0.7 (Tree Star).

CD44+ CD4+ T cells [2] = assay: ICS, naive or DENV2-immune Ifnar1-/- HLA-DRB1*0101 mice challenged with ZIKV; details: for expansion of peptide-reactive CD4+ T cells: naive mice; for expansion of peptide-reactive CD4+ T cells / CD4+ T cell response to peptide: day 7 after ZIKV challenge; for CD4+ T cell response to peptide: DENV2-immune mice
From the text: Ifnar1−/−HLA-DRB1*0101 mice were primed intraperitoneally with 2×103 FFU of DENV2 S221 for 4 weeks. Naïve mice and DENV2-immune mice were challenged retro-orbitally with 1×10^4 FFU of ZIKV strain SD001 for 3 or 7 days. Splenocytes were stimulated in vitro with the indicated ZIKV-specific and DENV2/ZIKV-cross-reactive epitopes. The frequency of CD44+ CD4+ T cells producing IFNγ, IFNγ plus TNF, or IL-2 were detected using the ICS assay. (E) The combined data for positive peptide responses in (FIGS. 27A-27D). Numbers in parentheses indicate the number of positive peptides. Data represent the mean±s.e.m. of three or four independent experiments, with a total of 9 mice/group for A and C, 14/group for B, and 15/group for D. *P<0.05, **P<0.01, ***P<0.001, ****P<0.0001 by two-tailed Mann-Whitney test. Negative and positive refer to cells incubated alone or with PMA/ionomycin, respectively.
Five-week-old female or male mice were inoculated intraperitoneally (i.p.) with 2×10^3 FFU of DENV2 S221. […] Positive and negative controls were included in all experiments.
as §2

CD44+ CD4+ T cells [3] = assay: ICS, DENV2 S221-infected Ifnar1-/- HLA-DRB1*0101 mice; details: for % CD4+ CD44+ T cells (DENV) IL-2+ / % CD4+ CD44+ T cells (DENV) INFγ+ / % CD4+ CD44+ T cells (DENV) INFγ+ TNFα+ / % CD4+ CD44+ T cells (DENV) TNFα+: 7 days after DENV2 S221, 6 h stimulation; for cross-reactive response by DENV2-primed CD4+ T cells / cytokines produced by DENV2-primed CD4+ T cells on peptide stimulation: DENV2 S221, day 7
Method: Ifnar1^−/− HLA-DRB1*0101 mice were infected intraperitoneally with 2×10^3 FFU of DENV2 strain […] for 7 days. Splenocytes were stimulated in vitro with the indicated ZIKV-derived HLA-DRB1*0101-binding peptides for 6 h. The frequency of CD44^+ CD4^+ T cells producing IFNγ, TNF, or IFNγ plus TNF (A) or IL-2 (B) were detected using the ICS assay. Data represent the mean±s.e.m. of three independent experiments (n=3-4 mice/experiment; total 10 mice). *P<0.05, **P<0.01, ***P<0.001, ****P<0.0001 by two-tailed Mann-Whitney test. Negative and positive refer to cells incubated alone or with PMA/ionomycin, respectively.
as §1, §2

[4] = 7 days after ZIKV SD001, 6 h stimulation

Sequence | % CD4+ CD44+ T cells (ZIKV) INFγ+ (CD44+ CD4+ T cells [1]; [4]) | cytokines produced by ZIKV-primed CD4+ T cells on peptide stimulation (CD44+ CD4+ T cells [1]) | identification as Th1 epitope (IFNγ, TNF, IL-2 ICS) (CD44+ CD4+ T cells [1]; ZIKV-primed CD4+ T cells) | identification as Th17 epitope (IL-17 ICS) (CD44+ CD4+ T cells [1]; ZIKV-primed CD4+ T cells) | expansion of peptide-reactive CD4+ T cells (CD44+ CD4+ T cells [2]) | % CD4+ CD44+ T cells (DENV) IL-2+ (CD44+ CD4+ T cells [3]) | cross-reactive response by DENV2-primed CD4+ T cells (CD44+ CD4+ T cells [3]) | cytokines produced by DENV2-primed CD4+ T cells on peptide stimulation (CD44+ CD4+ T cells [3]) | % CD4+ CD44+ T cells (ZIKV) IL-2+ (CD44+ CD4+ T cells [1]; [4]) | % CD4+ CD44+ T cells (DENV) INFγ+ (CD44+ CD4+ T cells [3]) | % CD4+ CD44+ T cells (DENV) INFγ+ TNFα+ (CD44+ CD4+ T cells [3]) | % CD4+ CD44+ T cells (DENV) TNFα+ (CD44+ CD4+ T cells [3]) | % CD4+ CD44+ T cells (ZIKV) INFγ+ TNFα+ (CD44+ CD4+ T cells [1]; [4]) | CD4+ T cell response to peptide (CD44+ CD4+ T cells [2]) | % CD4+ CD44+ T cells (ZIKV) TNFα+ (CD44+ CD4+ T cells [1]; [4]) | CD4+ T cell response (IFNγ, IL-2, IFNγ plus TNF) (CD44+ CD4+ T cells [2]; DENV2-primed mice, day 3 after ZIKV challenge)
IKKFKKDLAAMLRII [C81-95] | 0.19% | produce only IFNγ | Th1 epitopes | Th17 epitope | significant expansion | – | – | – | – | – | – | – | – | – | – | –
NLEYRIMLSVHGSQH [E134-148] | – | stimulated only IL-2 production | Th1 epitopes | – | – | 0.459% | elicited cross-reactive responses | induced only IL-2-producing cells | 0.19% | – | – | – | – | – | – | –
LALIAAFKVRPALLV [NS2A66-80] | 0.167% | stimulated IFNγ plus TNF production | Th1 epitopes | – | significant expansion | – | elicited cross-reactive responses | induced IFNγ-plus TNF-producing cells | – | 0.39% | 0.343% | 0.199% | 0.058% | increased responses | – | –
WAIYAALTTFITPAV [NS4B40-54] | – | stimulated IFNγ plus TNF production | Th1 epitopes | – | – | – | elicited cross-reactive responses | induced only TNF-producing cells | – | – | – | 0.367% | 0.049% | – | – | –
LPFVMALGLTAVRLV [NS2A134-198] | – | did not elicit a response by ZIKV-primed cells | – | – | – | – | – | induce TNF production | – | – | – | 0.397% | – | – | – | –
GAAFKSLFGGMSWFS [E450-464] | 0.183% | stimulated IFNγ plus TNF production | Th1 epitopes | – | – | – | – | – | – | – | – | – | 0.078% | increased responses | – | –
RAIWYMWLGARFLEP [NS5222-236] | 0.607% | stimulated IFNγ, TNF, and IL-2 production | Th1 epitopes | – | significant expansion | 0.643% | elicited cross-reactive responses | induced cells producing IFNγ, TNF, and IL-2 | 0.21% | 0.82% | 1.451% | 0.8% | 0.333% | increased responses | 0.571% | strong response
FLRFTAIKPSLGLIN [C53-67] | 0.265% | produce only IFNγ | Th1 epitopes | – | – | – | – | – | – | – | – | – | – | increased responses | – | –
GAAFGVMEALGTLPG [NS3601-NS4A12] | 0.203% | stimulated IFNγ plus TNF production | Th1 epitopes | – | significant expansion | – | – | – | – | – | – | – | 0.102% | increased responses | – | –
FGGLKRLPAGLLLGH [C27-41] | 0.191% | stimulated IFNγ, TNF, and IL-2 production | Th1 epitopes | – | significant expansion | – | – | – | 0.08% | – | – | – | 0.1% | increased responses | – | –
